# Counter-ions that a name gives are not always drawn.
# Molecular target: IRAK4 (Homo sapiens (Human), UniProt Q9NWZ3)
# Assay: IRAK4 Kinase Assay
# Type: biochemical
# Conditions: IMAP fluorescence polarization, 0.5 nM GST tagged IRAK4, 100 μM ATP, 30 minutes at 25° C.; read-out: IRAK4 IC50
# Protocol: The kinase activity of IRAK4 is determined by its ability to catalyze the phosphorylation of a fluorescent polypeptide substrate. The extent of phosphorylation is measured using the IMAP technology (Molecular Devices) where the phosphorylated fluorescent substrate binds to the large M(III)-based nanoparticles which reduces the rotational speed of the substrate and thus increases its fluorescent polarization (FP).
# 20 μL reaction mixture contains 10 mM TriHCl, pH 7.2, 0.5 nM GST tagged IRAK4 (SignalChem), 100 nM fluorescent peptide substrate (RP7030, Molecular Devices), 100 μM ATP, 1 mM DDT, 1 mM MgCl2, and 0.01% Tween 20. The reaction is initiated by the addition of ATP. After incubation for 30 minutes at 25° C., 60 μL of Progressive IMAP Reagent (Molecular Devices) is added to stop the reaction. Change in RP7030's FP is determined by a FP reader (Analyst HT, LJL BioSystems).
# IRAK4, sequence (Q9NWZ3 whole entry): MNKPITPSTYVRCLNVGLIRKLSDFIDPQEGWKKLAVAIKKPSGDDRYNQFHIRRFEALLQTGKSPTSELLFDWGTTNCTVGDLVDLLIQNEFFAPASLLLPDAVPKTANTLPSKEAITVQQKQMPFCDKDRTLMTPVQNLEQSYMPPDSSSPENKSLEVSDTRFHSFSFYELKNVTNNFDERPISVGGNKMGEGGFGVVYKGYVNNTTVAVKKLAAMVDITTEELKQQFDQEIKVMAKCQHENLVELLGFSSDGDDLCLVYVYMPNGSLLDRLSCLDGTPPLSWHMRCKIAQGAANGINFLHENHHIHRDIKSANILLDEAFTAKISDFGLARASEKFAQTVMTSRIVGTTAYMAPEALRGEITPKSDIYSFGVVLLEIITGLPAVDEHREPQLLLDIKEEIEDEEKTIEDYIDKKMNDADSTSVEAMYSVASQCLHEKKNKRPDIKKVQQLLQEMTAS
row,IC50 [nM],Compound
1,149,"Cn1cc(NC(=O)c2cnn3ccc(N4CCNCC(F)C4)nc23)c(C(F)(F)F)n1 (stereo not shown) [Example 27, 5-(6-fluoro-1,4-diazepan-1-yl)-N-[1-methyl-3-(trifluoromethyl)-1H-pyrazol-4-yl]pyrazolo[1,5-a]pyrimidine-3-carboxamide trifluoroacetate]"
2,72,"Cn1cc(NC(=O)c2cnn3ccc(N4CCNC(C5CC5)C4)nc23)c(C(F)(F)F)n1 (stereo not shown) [Example 28, 5-(3-cyclopropylpiperazin-1-yl)-N-[1-methyl-3-(trifluoromethyl)-1H-pyrazol-4-yl]pyrazolo[1,5-a]pyrimidine-3-carboxamide trifluoroacetate]"
3,24,"Cn1cc(NC(=O)c2cnn3ccc(N4CCNCC4C4CC4)nc23)c(C(F)(F)F)n1 (stereo not shown) [Example 29, 5-(2-cyclopropylpiperazin-1-yl)-N-[1-methyl-3-(trifluoromethyl)-1H-pyrazol-4-yl]pyrazolo[1,5-a]pyrimidine-3-carboxamide trifluoroacetate]"
4,71,"Cn1cc(NC(=O)c2cnn3ccc(N4CCNC(C)(C)C4)nc23)c(C(F)(F)F)n1 [Example 30, 5-(3,3-dimethylpiperazin-1-yl)-N-[1-methyl-3-(trifluoromethyl)-1H-pyrazol-4-yl]pyrazolo[1,5-a]pyrimidine-3-carboxamide trifluoroacetate]"
5,4,"N[C@H]1CCCC[C@H]1Nc1ccn2ncc(C(=O)Nc3ccncc3C(F)(F)F)c2n1 [Example 31, 5-{[(1R,2S)-2-aminocyclohexyl]amino}-N-[3-(trifluoromethyl)pyridin-4-yl]pyrazolo[1,5-a]pyrimidine-3-carboxamide formate]"
6,589,"CN1CCN(c2ccn3ncc(C(=O)Nc4cn(C)nc4C(F)(F)F)c3n2)C(C)(C)C1 [Example 35, N-[1-methyl-3-(trifluoromethyl)-1H-pyrazol-4-yl]-5-(2,2,4-trimethylpiperazin-1-yl)pyrazolo[1,5-a]pyrimidine-3-carboxamide trifluoroacetate]"
7,376,"Cn1cc(NC(=O)c2cnn3ccc(N4CCNCC(F)(F)C4)nc23)c(C(F)(F)F)n1 [Example 36, 5-(6,6-difluoro-1,4-diazepan-1-yl)-N-[1-methyl-3-(trifluoromethyl)-1H-pyrazol-4-yl]pyrazolo[1,5-a]pyrimidine-3-carboxamide trifluoroacetate]"
8,16,"N[C@H]1CCCC[C@H]1Nc1ccn2ncc(C(=O)Nc3ccccc3C(F)(F)F)c2n1 [Example 38, 5-{[(1R,2S)-2-aminocyclohexyl]amino}-N-[2-(trifluoromethyl)phenyl] pyrazolo[1,5-a]pyrimidine-3-carboxamide trifluoroacetate]"
9,2,"N#Cc1cscc1NC(=O)c1cnn2ccc(N[C@@H]3CCCC[C@@H]3N)nc12 [Example 39, 5-{[(1R,2S)-2-aminocyclohexyl]amino}-N-(4-cyanothiophen-3-yl)pyrazolo[1,5-a]pyrimidine-3-carboxamide trifluoroacetate]"
10,497,"Cn1cc(NC(=O)c2cnn3ccc(N4CCN5CCC4CC5)nc23)c(C(F)(F)F)n1 [Example 40, 5-(1,4-diazabicyclo[3.2.2]non-4-yl)-N-[1-methyl-3-(trifluoromethyl)-1H-pyrazol-4-yl]pyrazolo[1,5-a]pyrimidine-3-carboxamide trifluoroacetate]"
11,106,"Cn1cc(NC(=O)c2cnn3ccc(N4CCNCC4CC(F)(F)F)nc23)c(C(F)(F)F)n1 (stereo not shown) [Example 41, N-[1-methyl-3-(trifluoromethyl)-1H-pyrazol-4-yl]-5-[2-(2,2,2-trifluoroethyl)piperazin-1-yl]pyrazolo[1,5-a]pyrimidine-3-carboxamide trifluoroacetate]"
12,0.9,"N#Cc1sccc1NC(=O)c1cnn2ccc(N[C@@H]3CCCC[C@@H]3N)nc12 [Example 42, 5-{[(1R,2S)-2-aminocyclohexyl]amino}-N-(2-cyanothiophen-3-yl)pyrazolo[1,5-a]pyrimidine-3-carboxamide trifluoroacetate]"
13,45,"Cn1cc(NC(=O)c2cnn3ccc(N4CCN5CCC4C5)nc23)c(C(F)(F)F)n1 (stereo not shown) [Example 43, 5-(1,4-diazabicyclo[3.2.1]oct-4-yl)-N-[1-methyl-3-(trifluoromethyl)-1H-pyrazol-4-yl]pyrazolo[1,5-a]pyrimidine-3-carboxamide trifluoroacetate]"
14,8,"N[C@H]1CCCC[C@H]1Nc1ccn2ncc(C(=O)Nc3ccoc3C(F)(F)F)c2n1 [Example 45, 5-{[(1R,2S)-2-aminocyclohexyl]amino}-N-[2-(trifluoromethyl)furan-3-yl]pyrazolo[1,5-a]pyrimidine-3-carboxamide trifluoroacetate]"
15,48,"CC(C)(C)n1cc(NC(=O)c2cnn3ccc(N4CCNCC4)nc23)c(C(F)(F)F)n1 [Example 46, N-[1-tert-butyl-3-(trifluoromethyl)-1H-pyrazol-4-yl]-5-piperazin-1-ylpyrazolo[1,5-a]pyrimidine-3-carboxamide trifluoroacetate]"
16,49,"CC(C)(C)n1cc(NC(=O)c2cnn3ccc(N4CCNCC5(CC5)C4)nc23)c(C(F)(F)F)n1 [Example 47, N-[1-tert-butyl-3-(trifluoromethyl)-1H-pyrazol-4-yl]-5-(5,8-diazaspiro[2.6]non-5-yl)pyrazolo[1,5-a]pyrimidine-3-carboxamide trifluoroacetate]"
17,890,"CC(C)(C)n1cc(NC(=O)c2cnn3ccc(N[C@@H]4CCCC(F)(F)[C@@H]4N)nc23)c(C(F)(F)F)n1 [Example 49, 5-{[(1R,2R)-2-amino-3,3-difluorocyclohexyl]amino}-N-[1-tert-butyl-3-(trifluoromethyl)-1H-pyrazol-4-yl]pyrazolo[1,5-a]pyrimidine-3-carboxamide trifluoroacetate]"
18,90,"CC(C)(C)n1cc(NC(=O)c2cnn3ccc(N4CC5CCC4CN5)nc23)c(C(F)(F)F)n1 (stereo not shown) [Example 50, N-[1-tert-butyl-3-(trifluoromethyl)-1H-pyrazol-4-yl]-5-(2,5-diazabicyclo[2.2.2]oct-2-yl)pyrazolo[1,5-a]pyrimidine-3-carboxamide trifluoroacetate]"

row,Compound,IC50 [nM]
1,"Cn1cc(NC(=O)c2cnn3ccc(N4CCN5CCCC5C4)nc23)c(C(F)(F)F)n1 (stereo not shown) [Example 18, 5-(hexahydropyrrolo[1,2-a]pyrazin-2(1H)-yl)-N-[1-methyl-3-(trifluoromethyl)-1H-pyrazol-4-yl]pyrazolo[1,5-a]pyrimidine-3-carboxamide]",97
2,"Cn1cc(NC(=O)c2cnn3ccc(N4CC5CC(C4)N5)nc23)c(C(F)(F)F)n1 [Example 19, 5-(3,6-diazabicyclo[3.1.1]hept-3-yl)-N-[1-methyl-3-(trifluoromethyl)-1H-pyrazol-4-yl]pyrazolo[1,5-a]pyrimidine-3-carboxamide trifluoroacetate]",389
3,"Cn1cc(NC(=O)c2cnn3ccc(N4C[C@@H](O)C[C@H](O)C4)nc23)c(C(F)(F)F)n1 [Example 21, 5-[(3S,5S)-3,5-dihydroxypiperidin-1-yl]-N-[1-methyl-3-(trifluoromethyl)-1H-pyrazol-4-yl]pyrazolo[1,5-a]pyrimidine-3-carboxamide]",20
4,"Cn1cc(NC(=O)c2cnn3ccc(N4CCC[C@H](O)C4)nc23)c(C(F)(F)F)n1 [Example 22, 5-[(3S)-3-hydroxypiperidin-1-yl]-N-[1-methyl-3-(trifluoromethyl)-1H-pyrazol-4-yl]pyrazolo[1,5-a]pyrimidine-3-carboxamide]",2
5,"Cn1cc(NC(=O)c2cnn3ccc(N4CCC[C@@H](O)C4)nc23)c(C(F)(F)F)n1 [Example 23, 5-[(3R)-3-hydroxypiperidin-1-yl]-N-[1-methyl-3-(trifluoromethyl)-1H-pyrazol-4-yl]pyrazolo[1,5-a]pyrimidine-3-carboxamide]",0.9
6,"Cn1cc(NC(=O)c2cnn3ccc(N4C[C@H](O)C[C@@H](O)C4)nc23)c(C(F)F)n1 [Example 24, N-[3-(difluoromethyl)-1-methyl-1H-pyrazol-4-yl]-5-[(3R,5R)-3,5-dihydroxypiperidin-1-yl]pyrazolo[1,5-a]pyrimidine-3-carboxamide]",4
7,"Cn1cc(NC(=O)c2cnn3ccc(N4CCC[C@@H](O)C4)nc23)c(C(F)F)n1 [Example 25, N-[3-(difluoromethyl)-1-methyl-1H-pyrazol-4-yl]-5-[(3R)-3-hydroxypiperidin-1-yl]pyrazolo[1,5-a]pyrimidine-3-carboxamide]",0.5
8,"Cn1cc(NC(=O)c2cnn3ccc(N4CCC[C@H](O)C4)nc23)c(C(F)F)n1 [Example 26, N-[3-(difluoromethyl)-1-methyl-1H-pyrazol-4-yl]-5-[(3S)-3-hydroxypiperidin-1-yl]pyrazolo[1,5-a]pyrimidine-3-carboxamide]",0.5
9,"Cn1cc(NC(=O)c2cnn3ccc(N4CCC[C@@H](N)C4)nc23)c(C(F)(F)F)n1 [Example 32, 5-[(3R)-3-aminopiperidin-1-yl]-N-[1-methyl-3-(trifluoromethyl)-1H-pyrazol-4-yl]pyrazolo[1,5-a]pyrimidine-3-carboxamide]",3
10,"CN1CCN(c2ccn3ncc(C(=O)Nc4cn(C)nc4C(F)(F)F)c3n2)CC1 [Example 34, 5-(4-methylpiperazin-1-yl)-N-[1-methyl-3-(trifluoromethyl)-1H-pyrazol-4-yl]pyrazolo[1,5-a]pyrimidine-3-carboxamide]",269
11,"Cn1cc(NC(=O)c2cnn3ccc(N4CCC[C@H](N)C4)nc23)c(C(F)(F)F)n1 [Example 44, 5-[(3S)-3-aminopiperidin-1-yl]-N-[1-methyl-3-(trifluoromethyl)-1H-pyrazol-4-yl]pyrazolo[1,5-a]pyrimidine-3-carboxamide]",5
12,"CC(C)(C)n1cc(NC(=O)c2cnn3ccc(N[C@@H]4CCCC[C@@H]4O)nc23)c(C(F)(F)F)n1 [Example 48, N-[1-tert-butyl-3-(trifluoromethyl)-1H-pyrazol-4-yl]-5-{[(1R,2S)-2-hydroxycyclohexyl]amino} pyrazolo[1,5-a]pyrimidine-3-carboxamide trifluoroacetate]",259
13,"CC(C)n1cc(NC(=O)c2cnn3ccc(N4CCNCC5(CC5)C4)nc23)c(C(F)(F)F)n1 [Example 51, 5-(5,8-diazaspiro[2.6]non-5-yl)-N-[1-(1-methylethyl)-3-(trifluoromethyl)-1H-pyrazol-4-yl]pyrazolo[1,5-a]pyrimidine-3-carboxamide]",32

# From patent US10329294B2, “Pyrazolopyrimidine inhibitors of IRAK4 activity” (MERCK SHARP & DOHME CORP., priority 2015, dated 2019)
